Where a name gives a salt, the structure may show the parent alone.

One may read the melting point as the temperature, or range, at which the solid turns liquid.

Series [1] concerns dopamine transporter protein over the norepinephrine transporter protein. The settings on record: selectivity for dopamine transporter protein over norepinephrine transporter protein; cited from earlier work.

Take `CN1Cc2c(ccc3ccoc23)C(c2ccccc2)C1` (single isomer, unassigned): the melting point fell in the range of 81 to 83 °C.
Still for that read-out and setting: in the case of `CN1Cc2c(ccc3ccoc23)C(c2ccccc2)C1` (single isomer, unassigned) (as salt: maleate) it was 165 to 168 °C.
In turn, `CN1Cc2c(ccc3ccoc23)C(c2cc(F)cc(F)c2)C1` (stereo not shown) (as salt: hydrochloride) gave a melting point of 233 to 236 °C.
In turn, `Cc1ccc(C2CN(C)Cc3c2ccc2ccoc32)cc1` (single isomer, unassigned) (as salt: maleate) displayed a melting point of 190 to 191 °C.
Regarding `Cc1ccc(C2CN(C)Cc3c2ccc2ccoc32)cc1` (single isomer, unassigned) (as salt: hydrochloride), the melting point was 240 to 246 °C.
As to `COC(=O)C(c1ccccc1)C1CCCCN1` (stereo not shown) [Methylphenidate, methylphenidate], in series [1], the “DAT/NET Ki ratio” value is recorded as 0.1.
For the compound `CN1Cc2c(ccc3ccoc23)C(c2ccc(F)cc2)C1` (stereo not shown) (as salt: hydrochloride), the melting point is 242 to 257 °C.
